Paper PMC3989888 (Virology, 2014)
Read-outs that look alike come from different tables or passages of the source.

Columns and labels:
CD4 T cells (PBMC) [1] = test: Ex vivo class II tetramer staining and phenotyping of PBMC from adults; format: cell-based, human (DRB1*0101 healthy adults); conditions: for #Tet+/6.0×10^5 CD4+ T cells: ex vivo fresh PBMC, tetramer of the peptide; for % α4β7(+) CCR9(+) / % α4β7(+) CCR9(−) / % α4β7(−) CCR9(+) / % α4β7(−) CCR9(−): of antigen experienced tetramer+ CD4 T cells; for % Antigen experienced T cells: tetramer+ CD4 T cells, CD62L−CD45RA+/− and CD62L+CD45RA−
CD4 T cells (PBMC) [2] = format: cell-based, human (HLA-DR1 children)

## RVEYHFLSPYVSRKESP [TRF]
CD4 T cells (PBMC) [1]; HA-02
  #Tet+/6.0×10^5 CD4+ T cells: 8 /6.0×10^5 CD4^+ T cells
  % α4β7(+) CCR9(+): 33.3%
  % α4β7(+) CCR9(−): 33.3%
  % α4β7(−) CCR9(+): 0%
  % α4β7(−) CCR9(−): 33.3%
  % Antigen experienced T cells: 54.5%
CD4 T cells (PBMC) [1]; HA-15
  #Tet+/6.0×10^5 CD4+ T cells: 4 /6.0×10^5 CD4^+ T cells
  % Antigen experienced T cells: 0%
CD4 T cells (PBMC) [1]; HA-19
  #Tet+/6.0×10^5 CD4+ T cells: 10 /6.0×10^5 CD4^+ T cells
  % α4β7(+) CCR9(+): 33.3%
  % α4β7(+) CCR9(−): 8.33%
  % α4β7(−) CCR9(+): 25%
  % α4β7(−) CCR9(−): 33.3%
  % Antigen experienced T cells: 85.7%
CD4 T cells (PBMC) [1]; HA-23
  #Tet+/6.0×10^5 CD4+ T cells: 8 /6.0×10^5 CD4^+ T cells
  % α4β7(+) CCR9(+): 25%
  % α4β7(+) CCR9(−): 25%
  % α4β7(−) CCR9(+): 0%
  % α4β7(−) CCR9(−): 50%
  % Antigen experienced T cells: 57.1%
CD4 T cells (PBMC) [1]; HA-29
  #Tet+/6.0×10^5 CD4+ T cells: 14 /6.0×10^5 CD4^+ T cells
  % α4β7(+) CCR9(+): 50%
  % α4β7(+) CCR9(−): 0%
  % α4β7(−) CCR9(+): 0%
  % α4β7(−) CCR9(−): 50%
  % Antigen experienced T cells: 50%
CD4 T cells (PBMC) [1]; HA-41
  #Tet+/6.0×10^5 CD4+ T cells: 3 /6.0×10^5 CD4^+ T cells
  % α4β7(+) CCR9(+): 0%
  % α4β7(+) CCR9(−): 33.3%
  % α4β7(−) CCR9(+): 0%
  % α4β7(−) CCR9(−): 66.7%
  % Antigen experienced T cells: 100%
CD4 T cells (PBMC) [1]; HA-51
  #Tet+/6.0×10^5 CD4+ T cells: 98 /6.0×10^5 CD4^+ T cells
  % α4β7(+) CCR9(+): 20.7%
  % α4β7(+) CCR9(−): 44.8%
  % α4β7(−) CCR9(+): 6.9%
  % α4β7(−) CCR9(−): 27.6%
  % Antigen experienced T cells: 36.7%
CD4 T cells (PBMC) [1]; HA-52
  #Tet+/6.0×10^5 CD4+ T cells: 72 /6.0×10^5 CD4^+ T cells
  % α4β7(+) CCR9(+): 0%
  % α4β7(+) CCR9(−): 66.7%
  % α4β7(−) CCR9(+): 0%
  % α4β7(−) CCR9(−): 33.3%
  % Antigen experienced T cells: 27.3%
CD4 T cells (PBMC) [2]; both groups of children (vaccinated and placebo), data not shown
  Tetramer+ cells with phenotype of antigen-experienced cells: 0–30%
CD4 T cells (PBMC) [2]; placebo recipient children (n = 3)
  Frequency of tetramer stained antigen experienced CD4 T cells: <0.0001–0.003%
CD4 T cells (PBMC) [2]; vaccinated children (n = 3), two weeks after second dose of RIX4414
  Frequency of tetramer stained antigen experienced CD4 T cells: <0.0001–0.01%
